Source: PubChem BioAssay AID588656 (The Scripps Research Institute Molecular Screening Center, 2011)

Key:
[1] = test system: HT29 cells, ERK1/2 western blot, 24 h; test: altered MAPK1 (ERK1/2) protein abundance – HT29 cells, chemiluminescent western blot, powder samples, counter-screen for KLF5 inhibitor project, late-stage follow-up (AID 588656); conditions: measured here: ERK1/2 protein fold change vs DMSO; at 10 µM
[2] = biological target: Mitogen-activated protein kinase 1 (Homo sapiens) (UniProt P28482); test: as above; conditions: HT29 cells, ERK1/2 western blot, 24 h; at 10 µM; stronger effect = higher value
Sequence of Mitogen-activated protein kinase 1 (Homo sapiens) (P28482 whole entry, looked up): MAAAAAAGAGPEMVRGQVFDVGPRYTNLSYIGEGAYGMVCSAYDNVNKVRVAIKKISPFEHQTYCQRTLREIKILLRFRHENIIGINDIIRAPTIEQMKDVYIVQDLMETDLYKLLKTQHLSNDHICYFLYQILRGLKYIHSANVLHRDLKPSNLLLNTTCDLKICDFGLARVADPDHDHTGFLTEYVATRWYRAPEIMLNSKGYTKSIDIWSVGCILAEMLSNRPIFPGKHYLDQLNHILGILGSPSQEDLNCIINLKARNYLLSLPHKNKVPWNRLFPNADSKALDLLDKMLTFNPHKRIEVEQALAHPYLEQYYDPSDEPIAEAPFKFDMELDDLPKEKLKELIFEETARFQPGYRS

inhibition [2] [%] | SMILES | fold change [1]
-96.5 | CN(C(=O)CNC(=O)/C=C/c1cccc(Cl)c1)C1CCS(=O)(=O)CC1 | 1.97
-46.4 | CN(C(=O)COC(=O)/C=C/c1cccc([N+](=O)[O-])c1)C1CCS(=O)(=O)C1 (stereo unspecified) | 1.46
-96.6 | CN(C(=O)CNC(=O)/C=C/c1cccc(Cl)c1)C1CCS(=O)(=O)C1 (stereo unspecified) | 1.97
